For orientation: IC50 means the concentration needed to halve the response being measured.

From BindingDB's records for doi:10.1016/j.bioorg.2015.05.007 (Silesian University of Technology, 2015) come the findings set out here.

This test addresses T1, Chitin synthase 3 (Saccharomyces cerevisiae (strain ATCC 204508 / S288c), UniProt P29465).
T1 sequence (P29465 whole entry): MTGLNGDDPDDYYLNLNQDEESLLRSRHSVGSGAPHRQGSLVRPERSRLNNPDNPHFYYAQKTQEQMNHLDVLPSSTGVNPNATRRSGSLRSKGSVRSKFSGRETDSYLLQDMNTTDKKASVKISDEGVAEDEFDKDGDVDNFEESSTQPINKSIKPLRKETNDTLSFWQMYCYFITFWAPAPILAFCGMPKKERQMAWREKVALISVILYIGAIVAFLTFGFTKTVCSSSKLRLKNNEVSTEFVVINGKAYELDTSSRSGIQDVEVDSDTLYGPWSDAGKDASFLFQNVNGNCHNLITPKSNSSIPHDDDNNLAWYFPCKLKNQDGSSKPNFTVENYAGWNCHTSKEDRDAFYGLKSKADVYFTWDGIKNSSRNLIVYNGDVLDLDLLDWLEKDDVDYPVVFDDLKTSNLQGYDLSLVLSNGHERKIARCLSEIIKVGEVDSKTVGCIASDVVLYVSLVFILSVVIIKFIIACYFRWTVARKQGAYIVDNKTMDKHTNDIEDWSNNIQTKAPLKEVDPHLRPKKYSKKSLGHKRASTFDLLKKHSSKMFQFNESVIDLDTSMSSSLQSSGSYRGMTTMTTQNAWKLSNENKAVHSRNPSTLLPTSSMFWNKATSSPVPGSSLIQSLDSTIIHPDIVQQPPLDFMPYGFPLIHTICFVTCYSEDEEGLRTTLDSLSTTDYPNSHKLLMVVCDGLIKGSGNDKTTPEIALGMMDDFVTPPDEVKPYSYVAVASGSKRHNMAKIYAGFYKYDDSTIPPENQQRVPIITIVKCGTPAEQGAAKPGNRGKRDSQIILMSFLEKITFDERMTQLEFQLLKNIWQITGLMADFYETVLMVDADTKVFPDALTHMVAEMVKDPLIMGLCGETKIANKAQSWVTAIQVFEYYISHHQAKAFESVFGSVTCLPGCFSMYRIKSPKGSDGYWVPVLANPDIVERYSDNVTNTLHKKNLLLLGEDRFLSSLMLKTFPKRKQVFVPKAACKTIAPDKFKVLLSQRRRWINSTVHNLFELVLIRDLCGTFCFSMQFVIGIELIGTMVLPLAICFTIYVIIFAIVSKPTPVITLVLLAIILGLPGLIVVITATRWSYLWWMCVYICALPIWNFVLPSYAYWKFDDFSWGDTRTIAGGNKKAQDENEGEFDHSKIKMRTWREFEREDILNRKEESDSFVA
In words: Chitin Synthase Assays. Particulars: pH 7.5; 25 °C. The procedure:
Assays were performed in 96-wells microtiter plate with flat bottom. To each well of the plate, 100 µL of WGA solution was added at 50 µg/mL. After incubation at room temperature for at least 16 h the WGA solution was removed by triple washing with distill water. Wells were then blocked by adding 300 µL of BSA blocking buffer (20 mg/mL, 50 mM Tris-HCl, pH 7.5) and incubated for 3 h at room temperature. Microtiter plates were stored until use at -20 °C in blocking buffer. Before usage plates were thawed at 25 °C and thoroughly emptied. The standard reaction mixture in total volume 100 µL contains: UDP-GlcNAc (2.0 mM), GlcNAc (40 mM), MgCl2 (5.0 mM) and digitonin (0.1% w/v) dissolved in pH 7.5 Tris-HCl buffer (50 mM) containing test compounds at a range of concentrations from 0 mM (control) to 3.0 mM. The enzymatic reactions were started by the addition of 0.2 mg/mL solution of trypsin (1-10 µL) and membrane preparation (5-20 µL). Usually four different concentrations of trypsin were te

With `COC(=O)CCC(=O)NC[C@H]1O[C@@H](n2ccc(=O)[nH]c2=O)[C@@H](O)C1O` (some centres not stated) [5'-(N-succinyl)-5'-amino-5'-deoxyuridine methyl ester (7)], the IC50 came out at 800 µM. `O=C(CCC(=O)NCC(=O)NC[C@H]1O[C@@H](n2ccc(=O)[nH]c2=O)[C@@H](O)C1O)NCC(=O)NC[C@H]1O[C@@H](n2ccc(=O)[nH]c2=O)[C@@H](O)C1O` (some centres not stated) [Dimer 15 (15)] displayed a half-inhibitory concentration (IC50) of 3000 µM.
